According to patent US20210315893A1 (Galapagos NV, priority 2017, published 2021):

Key:
HFL-1 cells [1] = assay: IL8 assay in the presence of Human Serum Albumin; settings: HFL1, read-out: HSA IL8 EC50
HFL-1 cells [2] = assay: IL-8 production assay (S1P induced IL-8); format: cell-based; settings: Homo sapiens, HFL1; S1P (1 μM) induced IL-8 in HFL-1 cells, starvation medium without HSA; read-out: IL8 EC50
Summary of the method: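 HFL-1 fibroblasts in low-serum medium were pretreated 1 h with a 10-point 1/3 series of compound starting at 30 μM (0.3% DMSO).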

[3] = target: T1, human GPCR sphingosine 1-phosphate receptor 1 (Homo sapiens, UniProt P21453); assay: S1PR1 selectivity Ca2+ flux assay (antagonist readout); format: cell-based; settings: antagonist readout, CHO cells overexpressing human S1PR1 and Gq, S1P at EC80 (6 nM); read-out: S1P1 EC50 (nM), S1P1 antagonist EC50
T1 construct: host or cells: CHO
T1 sequence (P21453 whole entry): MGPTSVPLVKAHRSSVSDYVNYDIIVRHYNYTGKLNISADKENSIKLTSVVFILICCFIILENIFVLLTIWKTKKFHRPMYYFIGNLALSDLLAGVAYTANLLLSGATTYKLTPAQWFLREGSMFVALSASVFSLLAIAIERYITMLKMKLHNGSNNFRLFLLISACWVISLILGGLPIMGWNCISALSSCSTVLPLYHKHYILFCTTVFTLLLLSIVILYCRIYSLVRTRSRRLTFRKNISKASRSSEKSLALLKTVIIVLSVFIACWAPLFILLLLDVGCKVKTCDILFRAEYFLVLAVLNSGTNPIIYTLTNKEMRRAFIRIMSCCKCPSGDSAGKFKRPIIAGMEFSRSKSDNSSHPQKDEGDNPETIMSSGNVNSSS
Summary of the method: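 Antagonist mode: S1P challenge follows 15 min compound preincubation at 37 °C. Cells are CHO stably expressing human S1PR1, serum-starved 1 h (0.1% FAF BSA), loaded with Fluo 8. Peak-over-baseline fluorescence ratio is normalized to positive/negative controls; IC50 from logistic curve fit.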

[4] = tested on: bleomycin induced pulmonary fibrosis in mice; assay: Therapeutic bleomycin induced pulmonary fibrosis 21-day mice model; format: in vivo; settings: 10 mg/kg BID
Method: The aim of the study is to test the efficacy of a test compound at three different doses in a 21-day model of bleomycin induced pulmonary fibrosis in mice.
(§1) This study is carried out on C57BL/6N male mice, supplied by Charles River, Italy, which are acclimatized for at least 5 days in an environment maintained at 22° C., at 55% relative humidity, with 15-20 air changes per h under light cycles of 12 h. Mice pelleted food and water are provided ad libitum.
The solvent for the test solutions is prepared by adding 0.5 g of hydroxyethylcellulose (Natrosol) into 500 mL Aqua distillate (0.1%) under continuous stirring without heating for 5 h on a magnetic stirrer.
Fresh Nintedanib formulation is prepared daily in 0.1% Natrosol formulations to a final concentration of 5 mg/mL. Before dosing, animals are weighed and the Nintedanib amount administered is adjusted accordingly to individual weights corresponding to 10 mL/kg body weight, once daily p.o.,
Finally, test compound solutions are prepared by dissolving the suitable amount of said test compound in PEG 400 (20% of the final volume) then MC 0.5% (80% of the final volume) to reach final concentrations of 1 mg/mL, 0.3 mg/mL and 0.1 mg/mL, thus yielding compound for a doses of 10 mg/kg, 3 mg/kg and 1 mg/kg. […]
(§2) Pulmonary histological changes are assessed using Matsuse modification of Ashcroft score (Ashcroft et al., 1988; Matsuse et al., 1999). […]

[5] = tested on: bleomycin induced pulmonary fibrosis in mice; assay: Prophylactic bleomycin induced pulmonary fibrosis 14-day mice model; format: in vivo; settings: 10 mg/kg BID
Method: The aim of the study is totest the efficacy of atest compound at three different doses ina 14-day model of bleomycin induced pulmonary fibrosis in mice.
as §1, with “[…]” for “C57BL/6N”
The solvent for the test solutions is prepared by adding 0.5 g of hydroxyethylcellulose (Natrosol) into 500 mL Aqua distillate (0.1%) under continuous stirring without heating for 5 h on a magnetic stirrer. Anesthetic solution is prepared by adding 1 mL of Narketan (Narketan 10, Vetoquinol, Bern, Switzerland, 03605877535982) and 0.5 mL of Rompun (Rompun, 2%. Bayer, Leverkusen, Germany) into 9 mL saline. The resulting solution is administered at 10 mL/kg.
Prior to i.n administration, mice are anesthetized i.p. with the anesthetic solution described above.
Fresh pirfenidone formulation is prepared daily in 0.1% Natrosol formulations to a final concentration of 5 mg/mL. […]
as §2

S1PR2 = target: T2, S1PR2 (Homo sapiens, UniProt O95136); assay: S1PR2 binding assay (competition with radioactively labeled S1P, SpA); settings: membranes from stable cell line over expressing S1PR2, SpA beads; read-out: S1P2 EC50 (nM), S1PR2 binding EC50
T2 construct: expressed in transfected cells
T2 sequence (O95136 whole entry): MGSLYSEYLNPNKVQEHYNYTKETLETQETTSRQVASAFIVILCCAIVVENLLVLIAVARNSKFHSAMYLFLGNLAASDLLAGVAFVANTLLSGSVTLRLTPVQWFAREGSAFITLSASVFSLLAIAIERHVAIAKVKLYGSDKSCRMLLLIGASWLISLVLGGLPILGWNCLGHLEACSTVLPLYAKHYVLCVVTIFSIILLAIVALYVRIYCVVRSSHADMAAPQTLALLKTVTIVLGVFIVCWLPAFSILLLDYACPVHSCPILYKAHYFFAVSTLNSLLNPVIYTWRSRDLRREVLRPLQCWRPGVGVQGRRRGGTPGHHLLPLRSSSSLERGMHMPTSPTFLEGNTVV
Summary of the method: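 Scintillation proximity read-out after 2 h room-temperature incubation of compound, [3H]S1P and S1PR2-overexpressing cell membranes on WGA-coated beads. Buffer: 20 mM Tris pH 7.5, 100 mM NaCl, 10 mM MgCl2, 1 mM Na3VO4, 0.4% fatty-acid-free BSA; plates counted immediately after centrifugation.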

[6] = target: T3, human GPCR sphingosine 1-phosphate receptor 5 (Homo sapiens, UniProt Q9H228); assay: S1PR5 selectivity Ca2+ flux assay (antagonist readout); format: cell-based; settings: CHO cells overexpressing human S1PR5 and Gq, agonist at EC80 (20 nM), read-out: S1P5 EC50 (nM), S1P5 antagonist EC50
T3 construct: host or cells: CHO
T3 sequence (Q9H228 whole entry): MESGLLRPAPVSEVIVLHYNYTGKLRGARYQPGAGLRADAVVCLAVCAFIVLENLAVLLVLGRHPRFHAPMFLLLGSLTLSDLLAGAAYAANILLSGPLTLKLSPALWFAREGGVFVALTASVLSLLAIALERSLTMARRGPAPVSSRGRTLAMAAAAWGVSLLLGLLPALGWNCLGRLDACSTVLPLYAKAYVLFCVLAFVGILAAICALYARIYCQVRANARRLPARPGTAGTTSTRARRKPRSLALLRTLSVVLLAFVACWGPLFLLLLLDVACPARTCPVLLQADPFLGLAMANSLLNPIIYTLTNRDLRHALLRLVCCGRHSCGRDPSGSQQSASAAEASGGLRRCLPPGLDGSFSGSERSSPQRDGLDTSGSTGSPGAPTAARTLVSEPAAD
Summary of the method: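 Antagonist readout: after 15 min compound preincubation at 37° C, human S1PR5/Gq CHO cells loaded with Fluo 8 dye received an EC80 challenge of S1PR5-specific agonist, and fluorescence was recorded for 3 min. Maximal-over-background ratios, normalized as % inhibition, gave IC50 by logistic fit.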

[7] = target: T4, human GPCR sphingosine 1-phosphate receptor 2 (Homo sapiens, UniProt O95136); assay: S1PR2 antagonist Ca2+ flux assay; format: cell-based; settings: antagonist mode, CHO-S1PR2 cells, S1P at EC80, Ca2+ fluorescence; read-out: S1P2 EC50 (nM), S1P2 antagonist EC50
T4 construct: host or cells: CHO
T4 sequence (O95136 whole entry): as the sequence (O95136 whole entry) above
Summary of the method: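 Antagonist mode: 15 min after compound addition, S1P (EC80) stimulates Fluo8-loaded, 1 h-starved CHO-S1PR2 cells, Ca2+ read over 3 min; a prior 3-min read checks compound agonism. EC50 from peak/baseline fluorescence ratio, normalised versus vehicle and S1P EC50 (antagonist) or EC100 (agonist).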

SMILES | EC50 (HFL-1 cells [1]) | EC50 (HFL-1 cells [2]) | EC50 [3] | EC50 (S1PR2) | EC50 [6] | EC50 [7] | Ashcroft score difference [4] | Ashcroft score difference [5]
O=C(O)Cn1nc(Cc2nc3cc(Cl)c(OCC4CC4)cc3[nH]2)c2ccccc2c1=O [Compound 115, 2-[4-[[5-chloro-6-(cyclopropylmethoxy)-1H-benzimidazol-2-yl]methyl]-1-oxo-phthalazin-2-yl]acetic acid] | 51.8 nM | 5.73 nM | 3620 nM | – | – | – | statistically significant Ashcroft score difference | statistically significant Ashcroft score difference
O=C(Cn1nc(Cn2cc3cc(OCC4CC4)c(Cl)cc3n2)c2ccccc2c1=O)NS(=O)(=O)C1CC1 [Compound 244, 2-[4-[[6-chloro-5-(cyclopropylmethoxy)indazol-2-yl]methyl]-1-oxo-phthalazin-2-yl]-N-cyclopropylsulfonyl-acetamide] | 808 nM | 21.3 nM | ≥ 19800 nM | 136 nM | 19800 nM | 8.29 nM | – | –
N#Cc1cc2[nH]c(Cc3nn(CC(=O)O)c(=O)c4ccccc34)nc2cc1OCC1CC1 [compound 7, 2-[4-[[6-cyano-5-(cyclopropyl-methoxy)-1H-benzimidazol-2-yl]methyl]-1-oxo-phthalazin-2-yl]acetic acid] | 11.3 nM | 3.67 nM | ≥ 19800 nM | 50.3 nM | 19800 nM | 8.26 nM | – | –
N#Cc1cc2nn(Cc3nn(CC(=O)O)c(=O)c4ccccc34)cc2cc1OCC(F)F [compound 8, 2-[4-[[6-cyano-5-(2,2-difluoro-ethoxy)indazol-2-yl]methyl]-1-oxo-phthalazin-2-yl]acetic acid] | 9950 nM | 610 nM | ≥ 19800 nM | 2490 nM | 19800 nM | 10700 nM | – | –
N#Cc1cc2[nH]c(Cn3nc(CC(=O)N4C[C@H](O)[C@@H](O)C4)c(=O)c4ccccc43)nc2cc1OCC1CC1 [compound 10, 6-(cyclopropyl-methoxy)-2-[[3-[2-[(3S,4S)-3,4-dihydroxy-pyrrolidin-1-yl]-2-oxo-ethyl]-4-oxo-cinnolin-1-yl]methyl]-3H-benzimidazole-5-carbonitrile] | 3.17 nM | 0.567 nM | ≥ 19800 nM | 11.6 nM | 19800 nM | 4.55 nM | – | –
O=C(Cn1nc(Cc2cc3cc(Cl)c(OCC(F)F)cc3[nH]2)c2ccccc2c1=O)N1CCOCC1 [compound 11, 4-[[5-chloro-6-(2,2-difluoro-ethoxy)-1H-indol-2-yl]-methyl]-2-(2-morpholino-2-oxo-ethyl)-phthalazin-1-one] | 694 nM | 59.6 nM | ≥ 19800 nM | 324 nM | 19800 nM | 80 nM | – | –

Further lines, with some results ahead:

EC50 (HFL-1 cells [1]) | EC50 (HFL-1 cells [2]) | EC50 [3] | EC50 (S1PR2) | EC50 [6] | EC50 [7] | SMILES | Ashcroft score difference [4] | Ashcroft score difference [5]
1100 nM | 143 nM | ≥ 19800 nM | 582 nM | 19800 nM | 276 nM | NC(=O)c1ccc2c(=O)n(CC(=O)N3CCOCC3)nc(Cc3nc4cc(OCC(F)F)c(Cl)cc4[nH]3)c2c1 [compound 12, 4-[[6-chloro-5-(2,2-difluoro-ethoxy)-1H-benzimidazol-2-yl]methyl]-2-(2-morpholino-2-oxo-ethyl)-1-oxo-phthalazine-6-carboxamide] | – | –
251 nM | 105 nM | ≥ 19800 nM | 221 nM | 19800 nM | 120 nM | N#Cc1cc2[nH]c(Cc3nn(CC(=O)N4CC[C@H](O)C4)c(=O)c4ccccc34)nc2cc1OCC(F)F [compound 13, 6-(2,2-difluoro-ethoxy)-2-[[3-[2-[(3S)-3-hydroxy-pyrrolidin-1-yl]-2-oxo-ethyl]-4-oxo-phthalazin-1-yl]methyl]-3H-benzimidazole-5-carbonitrile] | – | –
343 nM | 24.2 nM | ≥ 19800 nM | 378 nM | 19800 nM | 5.57 nM | CC(C(=O)NS(C)(=O)=O)c1nn(Cc2cn3cc(OCC4CC4)c(Cl)cc3n2)c2ccccc2c1=O (centres unmarked) [compound 15, 2-[1-[[7-chloro-6-(cyclopropyl-methoxy)imidazo-[1,2-a]pyridin-2-yl]methyl]-4-oxo-cinnolin-3-yl]-N-methylsulfonyl-propanamide] | – | –
293 nM | 58.1 nM | ≥ 19800 nM | 306 nM | 19800 nM | 14.6 nM | N#Cc1ccc2c(=O)n(CC(=O)O)nc(Cc3nc4cc(Cl)c(OCC(F)F)cc4[nH]3)c2c1 [compound 23, 2-[4-[[5-chloro-6-(2,2-difluoro-ethoxy)-1H-benzimidazol-2-yl]methyl]-6-cyano-1-oxo-phthalazin-2-yl]acetic acid] | – | –
